Literature values, collected in patent EP2742940A1, “Salts of aza-bicyclo-di-aryl ethers for adminstration once daily, twice daily or thrice daily” (IP Gesellschaft für Management mbH, priority 2012, dated 2014).
Several values for one entry are separate records, joined by “and”; a condition that tells them apart may be missing. Identical values can stand only once. Like-named read-outs stand apart in the source and are kept apart here.

Assays:
[1] = design: Initial water content / Hygroscopy @ 85%RH: unit not given here
α7-nAChR = molecular target: T1, α7-nAChR (Homo sapiens, UniProt P36544); settings: Emax relative to epibatidine response
T1 construct: expressed in transfected cells; host or cells: GH3 cells

α4β2-nAChR = molecular target: T2, α4β2-nAChR (Homo sapiens, UniProt P17787+P43681)
T2 construct: expressed in transfected cells

[2] = mice; for Brain (pmoles/g)±SD) / Plasma (pmoles/ml±SD): 30 µmol/kg p.o.
mice = settings: mouse, oral, Dose 0.3 mg/kg, familiar partner at 24 h vs time 0
[3] = male Wistar rats, oral 10 mg/kg, Mean All (n=8)
[4] = male Wistar rats, oral 10 mg/kg, individual rats 01-08, listed as free base, 10 mg/kg

T1 sequence (P36544 23-502): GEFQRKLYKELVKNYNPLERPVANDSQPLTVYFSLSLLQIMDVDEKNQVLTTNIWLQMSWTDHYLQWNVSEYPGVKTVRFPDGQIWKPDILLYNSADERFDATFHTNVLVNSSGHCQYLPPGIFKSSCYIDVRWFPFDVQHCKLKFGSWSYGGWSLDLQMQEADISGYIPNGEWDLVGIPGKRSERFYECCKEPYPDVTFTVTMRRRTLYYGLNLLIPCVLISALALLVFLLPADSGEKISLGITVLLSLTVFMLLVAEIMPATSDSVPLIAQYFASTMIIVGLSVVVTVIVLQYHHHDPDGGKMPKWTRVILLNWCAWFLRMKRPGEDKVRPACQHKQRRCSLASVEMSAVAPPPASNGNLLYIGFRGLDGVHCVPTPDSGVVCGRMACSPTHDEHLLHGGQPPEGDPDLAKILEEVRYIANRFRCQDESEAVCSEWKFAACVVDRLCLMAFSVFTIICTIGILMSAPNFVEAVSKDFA
T2 sequence (P43681 29-627 limits assumed): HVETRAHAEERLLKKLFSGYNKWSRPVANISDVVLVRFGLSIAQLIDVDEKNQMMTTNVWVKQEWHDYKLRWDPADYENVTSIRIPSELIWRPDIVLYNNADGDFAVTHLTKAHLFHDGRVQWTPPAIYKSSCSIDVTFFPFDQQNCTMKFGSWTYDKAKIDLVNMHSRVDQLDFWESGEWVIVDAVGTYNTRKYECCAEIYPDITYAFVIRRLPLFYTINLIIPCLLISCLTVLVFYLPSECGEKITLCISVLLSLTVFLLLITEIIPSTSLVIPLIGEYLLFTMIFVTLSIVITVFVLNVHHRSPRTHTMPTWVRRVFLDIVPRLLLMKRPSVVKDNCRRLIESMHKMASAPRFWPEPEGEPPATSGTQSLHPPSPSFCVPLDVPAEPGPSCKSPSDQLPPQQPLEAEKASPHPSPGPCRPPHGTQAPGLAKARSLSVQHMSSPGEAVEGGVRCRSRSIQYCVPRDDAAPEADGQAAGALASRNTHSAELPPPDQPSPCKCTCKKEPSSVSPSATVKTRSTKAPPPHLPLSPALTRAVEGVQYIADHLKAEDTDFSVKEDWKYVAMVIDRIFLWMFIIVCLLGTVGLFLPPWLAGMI
T2 sequence (P17787 26-502): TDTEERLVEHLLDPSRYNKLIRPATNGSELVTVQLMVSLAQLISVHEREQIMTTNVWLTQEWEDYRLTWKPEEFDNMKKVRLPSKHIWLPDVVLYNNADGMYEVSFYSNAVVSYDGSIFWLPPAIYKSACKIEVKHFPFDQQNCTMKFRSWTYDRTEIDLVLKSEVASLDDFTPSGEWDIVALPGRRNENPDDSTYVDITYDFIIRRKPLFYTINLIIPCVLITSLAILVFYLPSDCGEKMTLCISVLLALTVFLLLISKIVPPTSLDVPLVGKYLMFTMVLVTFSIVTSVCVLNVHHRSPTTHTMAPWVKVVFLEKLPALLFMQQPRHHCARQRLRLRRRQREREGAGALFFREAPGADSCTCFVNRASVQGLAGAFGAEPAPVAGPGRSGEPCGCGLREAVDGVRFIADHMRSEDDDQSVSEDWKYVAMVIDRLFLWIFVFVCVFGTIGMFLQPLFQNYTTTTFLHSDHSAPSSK

**Q.** Which “Hygroscopy @ 85%RH” value ([1]; 85%RH) does the source give for `Cc1ccc(-c2ccc(O[C@H]3CN4CCC3CC4)cn2)cc1` [Compound A, (R)-3-(6-(4-methylphenyl)-pyridin-3-yloxy)-1-aza-bicyclo[2.2.2]octane] here?
**A.** The value was “∼2”.

**Q.** What about the Initial water content ([1]; Example 7 comparison of salt forms) of the same compound?
**A.** Its Initial water content is 0.1.

**Q.** What about the moisture gain ([1]; at 93% relative humidity (RH)) of the same compound?
**A.** The moisture gain was 2%.

**Q.** And the “α7-nAChR activity Efficacy compared to epibatidine (100%)” value (α7-nAChR)?
**A.** Its value is 75%.

**Q.** And the EC50 (α4β2-nAChR)?
**A.** Its EC50 is over 100 µM.

**Q.** What about the “Brain (pmoles/g)±SD)” value ([2]; 0.25 hour) of the same compound?
**A.** Its value is 4631 ± 1717 pmol/g.

**Q.** And the “Plasma (pmoles/ml±SD)” value ([2]; 0.25 hour)?
**A.** Its value is 573 ± 234 pmol/mL.

**Q.** And the “Brain (pmoles/g)±SD)” value ([2]; 0.5 hour)?
**A.** The value was 11430 ± 3441 pmol/g.

**Q.** What about the “Plasma (pmoles/ml±SD)” value ([2]; 0.5 hour) of the same compound?
**A.** Its value is 559 ± 143 pmol/mL.

**Q.** What about the “Brain (pmoles/g)±SD)” value ([2]; 1 hour) of the same compound?
**A.** The value was 14948 ± 4716 pmol/g.

**Q.** And the “Plasma (pmoles/ml±SD)” value ([2]; 1 hour)?
**A.** Its value is 322 ± 135 pmol/mL.

**Q.** What about the “Brain (pmoles/g)±SD)” value ([2]; 4 hour) of the same compound?
**A.** Its value is 1272 ± 715 pmol/g.

**Q.** What about the “Plasma (pmoles/ml±SD)” value ([2]; 4 hour) of the same compound?
**A.** Its value is 20 ± 16 pmol/mL.

**Q.** And the “Brain (pmoles/g)±SD)” value ([2]; 8 hour)?
**A.** The value was 58 ± 27 pmol/g.

**Q.** And the “time for which brain concentration is beyond (or at least equal) to the compound's EC50 at the a7-nAChR” value ([2]; acute oral dose of 30 pmol/kg (so in the source), free base form)?
**A.** Its value is “at least 4 hours”.

**Q.** And the “Reduction in time scrutinizing in % ± SEM at 24 h” value (mice)?
**A.** Its value is 36 ± 6%.

**Q.** And the “AUClast” value [3]?
**A.** Its value is 200 ng·h/mL.

**Q.** And the “AUClast/Dose (h·ng/mL)/(mg/kg)” value [3]?
**A.** Its value is 20.4 (h·ng/mL)/(mg/kg).

**Q.** What about the “Cmax” value [3] of the same compound?
**A.** Its value is 112 ng/mL.

**Q.** And the “Cmax/Dose (ng/mL)/(mg/kg)” value [3]?
**A.** Its value is 11.3 (ng/mL)/(mg/kg).

**Q.** What about the “Concentration in plasma, Time (h) 0.25” value [3] of the same compound?
**A.** Its value is 100 ng/mL.

**Q.** What about the “Concentration in plasma, Time (h) 0.5” value [3] of the same compound?
**A.** Its value is 83.5 ng/mL.

**Q.** What about the “Concentration in plasma, Time (h) 1” value [3] of the same compound?
**A.** The value was 52.7 ng/mL.

**Q.** What about the “Concentration in plasma, Time (h) 2” value [3] of the same compound?
**A.** Its value is 31.2 ng/mL.

**Q.** And the “Concentration in plasma, Time (h) 3” value [3]?
**A.** Its value is 16.2 ng/mL.

**Q.** And the “Concentration in plasma, Time (h) 4” value [3]?
**A.** The value was 10.3 ng/mL.

**Q.** And the “Concentration in plasma, Time (h) 6” value [3]?
**A.** The value was 437 ng/mL.

**Q.** What about the “Concentration in plasma, Time (h) 8” value [3] of the same compound?
**A.** The value was 354 ng/mL.

**Q.** And the “Concentration in plasma, Time (h) 24” value [3]?
**A.** Its value is 0.822 ng/mL.

**Q.** And the “AUClast” value [4]?
**A.** The value was 141 ng·h/mL and 123 ng·h/mL and 238 ng·h/mL and 136 ng·h/mL and 214 ng·h/mL and 296 ng·h/mL and 234 ng·h/mL and 236 ng·h/mL.

**Q.** What about the “AUClast/Dose (h·ng/mL)/(mg/kg)” value [4] of the same compound?
**A.** The value was 14.0 (h·ng/mL)/(mg/kg) and 12.0 (h·ng/mL)/(mg/kg) and 24.4 (h·ng/mL)/(mg/kg) and 13.5 (h·ng/mL)/(mg/kg) and 21.6 (h·ng/mL)/(mg/kg) and 29.7 (h·ng/mL)/(mg/kg) and 23.4 (h·ng/mL)/(mg/kg) and 24.5 (h·ng/mL)/(mg/kg).

**Q.** What about the “Cmax” value [4] of the same compound?
**A.** Its value is 58.8 ng/mL and 89.6 ng/mL and 83.0 ng/mL and 94.8 ng/mL and 119 ng/mL and 188 ng/mL and 117 ng/mL and 145 ng/mL.

**Q.** What about the “Cmax/Dose (ng/mL)/(mg/kg)” value [4] of the same compound?
**A.** Its value is 5.81 (ng/mL)/(mg/kg) and 8.79 (ng/mL)/(mg/kg) and 8.50 (ng/mL)/(mg/kg) and 9.40 (ng/mL)/(mg/kg) and 12.0 (ng/mL)/(mg/kg) and 18.9 (ng/mL)/(mg/kg) and 11.7 (ng/mL)/(mg/kg) and 15.0 (ng/mL)/(mg/kg).

**Q.** And the “Concentration in plasma, Time (h) 0.25” value [4]?
**A.** Its value is 58.8 ng/mL and 89.68 ng/mL and 3.0 ng/mL and 79.4 ng/mL and 105 ng/mL and 188 ng/mL and 49.0 ng/mL and 145 ng/mL.

**Q.** What about the “Concentration in plasma, Time (h) 0.5” value [4] of the same compound?
**A.** The value was 34.8 ng/mL and 51.2 ng/mL and 64.5 ng/mL and 94.8 ng/mL and 119 ng/mL and 122 ng/mL and 117 ng/mL and 65.0 ng/mL.

**Q.** What about the “Concentration in plasma, Time (h) 1” value [4] of the same compound?
**A.** The value was 20.1 ng/mL and 63.9 ng/mL and 36.0 ng/mL and 65.8 ng/mL and 83.6 ng/mL and 87.0 ng/mL and 33.8 ng/mL.

**Q.** And the “Concentration in plasma, Time (h) 2” value [4]?
**A.** Its value is 679 ng/mL and 12.6 ng/mL and 51.7 ng/mL and 16.2 ng/mL and 43.2 ng/mL and 46.9 ng/mL and 42.2 ng/mL and 29.9 ng/mL.

**Q.** And the “Concentration in plasma, Time (h) 3” value [4]?
**A.** The value was 531 ng/mL and 838 ng/mL and 26.3 ng/mL and 784 ng/mL and 23.0 ng/mL and 34.4 ng/mL and 18.4 ng/mL and 620 ng/mL.

**Q.** What about the “Concentration in plasma, Time (h) 4” value [4] of the same compound?
**A.** The value was 394 ng/mL and 3.99 ng/mL and 18.2 ng/mL and 454 ng/mL and 8.63 ng/mL and 21.1 ng/mL and 13.8 ng/mL and 8.55 ng/mL.

**Q.** What about the “Concentration in plasma, Time (h) 6” value [4] of the same compound?
**A.** The value was 487 ng/mL and 181 ng/mL and 662 ng/mL and 127 ng/mL and 5.32 ng/mL and 438 ng/mL and 4.59 ng/mL and 606 ng/mL.

**Q.** What about the “Concentration in plasma, Time (h) 8” value [4] of the same compound?
**A.** Its value is 662 ng/mL and 0.812 ng/mL and 246 ng/mL and 1.32 ng/mL and 367 ng/mL and 154 ng/mL and 225 ng/mL and 967 ng/mL.

**Q.** What about the “T1/2” value [4] of the same compound?
**A.** The value was 8.67 h and 3.24 h and 367 h.

**Q.** What about the “Tlast” value [4] of the same compound?
**A.** Its value is 24.0 h (3×) and 8.0 h.

**Q.** And the AUClast (rats, acute oral dosing of 10 mg/kg)?
**A.** The AUClast was 200+-62 h ng/ml.
